Common to all, as to type: cell-based
For one assay, the system named is Hop62. Nature of the assay: SRB assay, lung cancer cell line Hop62. As to conditions: Homo sapiens, read-out: In vitro anticancer activity GI50, Lung Hop62. How it is done: (§1) Single cell suspension of the tumour cells grown in tissue culture were made, cells counted and cell count adjusted to 1×10^5 to 5×10^5 cells/ml. Ninety six (96) well plates were seeded with this cell suspension, each well receiving 100 μl of it. The plate was then be incubated at 37° C. temperature in CO2 incubator for 24 hours. Drugs were added at concentrations after 24-hour incubation followed by further incubation for 48 hours. Experiment was terminated by gently layering the cells in the wells with 30% TCA and plates were kept in refrigerator for 1 hour following which they were washed thoroughly with tap water, dried attained with 0.4% SRB in 1% acetic aid and finally, the bound SRB eluted with 10 mM tris. Absorbance was read at 540 nm, in the microtitre-plate reader. Optical density of drug-treated cells was compared with that of control cells and cell inhibition was calculated as percent values. Each compound was tested at 10, 20, 40 and 80 μg/ml in triplicate on human malignant cell lines.

The next assay relates to Zr-75-1. Nature of the assay: SRB assay, breast cancer cell line Zr-75-1. As to conditions: Homo sapiens, read-out: In vitro anticancer activity GI50, Breast Zr-75-1. As to the method:
as §1

For another assay, the system named is Colo205. Nature of the assay: SRB assay, colon cancer cell line Colo205. As to conditions: Homo sapiens, read-out: In vitro anticancer activity GI50, Colon Colo205. How it is done:
as §1
Background: In SRB staining, fixed cells bind dye roughly in proportion to their protein.

The subject of another assay is Gurav. Nature of the assay: SRB assay, oral cancer cell line Gurav. Conditions: Homo sapiens, read-out: In vitro anticancer activity GI50, Oral Gurav. How it is done: as §1
In the next assay the test system is A-549. Nature of the assay: SRB assay, lung cancer cell line A-549. As to conditions: Homo sapiens, A549; SRB assay, 48 hours drug exposure; read-out: In vitro anticancer activity GI50, Lung A-549. As to the method:
as §1

The test system of a further assay is A-2780. Nature of the assay: SRB assay, ovarian cancer cell line A-2780. Conditions: Homo sapiens, read-out: In vitro anticancer activity GI50, Ovarian A-2780. As to the method: as §1
The next assay has as its system KB. Nature of the assay: SRB assay, oral cancer cell line KB. Conditions: Homo sapiens, read-out: In vitro anticancer activity GI50, Oral KB. How it is done: as §1
The next assay concerns MCF7. Nature of the assay: SRB assay, breast cancer cell line MCF7. As to conditions: Homo sapiens, read-out: In vitro anticancer activity GI50, Breast MCF7. How it is done:
as §1

In the next assay the test system is DWD. Nature of the assay: SRB assay, oral cancer cell line DWD. Conditions: Homo sapiens, read-out: In vitro anticancer activity GI50, Oral DWD. How it is done:
as §1

The mark [1] stands for this setting: SRB assay, 48 hours drug exposure.

Read-outs that look alike come from different tables or passages of the source. A value given as a limit tells only on which side of the number the result lay.

A word on the GI50: it is the concentration at which growth is held to half of that of the control. Turning to `COc1cccc2c1C(=O)c1c(O)c3c(c(O)c1C2=O)C[C@@](O)(C(=O)CO)C[C@@H]3O[C@H]1C[C@H](N)[C@H](O)[C@H](C)O1` [ADR, adriamycin, reference compound], the GI50 was 150 nM in the assay with Hop62 (HOP-62, SRB assay, 48 hours drug exposure); 110 nM in the assay with Zr-75-1 (ZR-75-1, SRB assay, 48 hours drug exposure); < 100 nM in the assay on Colo205 (COLO 205, SRB assay, 48 hours drug exposure); < 100 nM in the assay on Gurav (setting [1]); < 100 nM in the assay with A-549; < 100 nM with A-2780 (A2780, SRB assay, 48 hours drug exposure). The GI50 in the assay on KB (setting [1]) was 130 nM; with MCF7 (MCF7, SRB assay, 48 hours drug exposure), 130 nM; in the assay on DWD (setting [1]), 100 nM.

In the case of `COc1cc(/C(=C\c2ccc(O)c([N+](=O)[O-])c2)C(=O)N[C@@H]2c3cc4c(cc3[C@@H](c3cc(OC)c(OC)c(OC)c3)[C@H]3C(=O)OC[C@@H]32)OCO4)cc(OC)c1OC` [Compound 3g, 4β-(E)-3-(4-hydroxy-3-nitrophenyl)-2-(3,4,5-trimethoxyphenyl)acrylamidopodophyllotoxin], the GI50 was determined as 190 nM with Hop62 (HOP-62, 48 h); 180 nM in the assay on Zr-75-1 (ZR-75-1, 48 h); 2000 nM in the assay on Colo205 (COLO 205, 48 h); 190 nM in the assay on Gurav (48 h); 2200 nM in the assay on A-2780 (A2780, 48 h); 2200 nM in the assay with KB (48 h). For the same compound, the GI50 in the assay with MCF7 (MCF7, 48 h) is 2700 nM; in the assay with DWD (48 h), < 100 nM.

(Values after US8673969B2, “Substituted 4-β-acrylamidopodophyllotoxin congeners as antitumour antibiotics and the process for preparation thereof” (Council of Scientific & Industrial Research, priority 2010, dated 2014).)
